# Source: publication PMC12477080, “Polychlorinated biphenyls (PCBs) interact with drug metabolism in vivo” (Archives of Toxicology, 2025)
# Biological target: T1, HEK293 cells overexpressing CYP1A2 (Homo sapiens, UniProt P05177)
# T1 construct: expressed in transfected cells; host or cells: HEK293
# T1 sequence (P05177 1-516): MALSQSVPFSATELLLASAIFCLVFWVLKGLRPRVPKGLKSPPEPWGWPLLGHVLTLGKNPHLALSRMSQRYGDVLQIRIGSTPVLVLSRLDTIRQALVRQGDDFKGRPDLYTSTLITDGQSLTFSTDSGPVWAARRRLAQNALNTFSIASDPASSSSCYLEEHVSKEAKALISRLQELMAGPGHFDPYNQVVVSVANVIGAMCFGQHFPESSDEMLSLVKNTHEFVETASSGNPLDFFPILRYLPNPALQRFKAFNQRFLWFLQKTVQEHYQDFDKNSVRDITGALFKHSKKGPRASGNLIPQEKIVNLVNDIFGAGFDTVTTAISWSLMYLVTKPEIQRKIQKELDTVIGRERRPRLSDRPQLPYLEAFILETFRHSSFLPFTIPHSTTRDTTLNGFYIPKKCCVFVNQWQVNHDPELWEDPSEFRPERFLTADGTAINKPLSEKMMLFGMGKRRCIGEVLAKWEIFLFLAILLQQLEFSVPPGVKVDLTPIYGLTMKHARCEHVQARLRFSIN
# Assay: CYP1A2 activity in transgenic HEK293 cells (phenacetin probe)
# Assay type: cell-based
# Conditions: 0.1, 0.5, 1 µM PCB118, 30 min, then 10 µM phenacetin 1 h
smiles,measurement,value
Clc1ccc(-c2cc(Cl)c(Cl)cc2Cl)cc1Cl [PCB118],effect on CYP1A2 activity in HEK293 cells (phenacetin probe),significantly inhibited CYP1A2 activity in a dose-dependent manner
